SMILES strings stand for the structures.

Common to all, as to format: in vivo
Experiment [1] has as its system Amaranthus retoflexus (AMARE). The experiment in a line: Post-emergence herbicidal glasshouse test. To be noted: sprayed after 8 days cultivation, 250 g/ha, evaluated after 13 days, five-point scale. How it is done:
(§1) Seeds of a variety of test species are sown in standard soil in pots Amaranthus retoflexus (AMARE), Echinochloa crus-galli (ECHCG), Setaria faberi (SETFA)). After cultivation for one day (pre-emergence) or after 8 days cultivation (post-emergence) under controlled conditions in a glasshouse (at 24/16° C., day/night; 14 hours light; 65% humidity), the plants are sprayed with an aqueous spray solution derived from the formulation of the technical active ingredient in acetone/water (50:50) solution containing 0.5% Tween™ 20 (polyoxyethylene sorbitan monolaurate, CAS RN 9005-64-5). Compounds are applied at 250 g/ha unless otherwise stated. The test plants are then grown in a glasshouse under controlled conditions in a glasshouse (at 24/16° C., day/night; 14 hours light; 65% humidity) and watered twice daily. After 13 days for pre- and post-emergence, the test is evaluated for the percentage damage caused to the plant. The biological activities are shown in the following table on a five-point scale (5=81-100%; 4=61-80%; 3=41-60%; 2=21-40%; 1=0-20%).

Experiment [2] deals with Echinochloa crus-galli (ECHCG). As to the kind of experiment: Post-emergence herbicidal glasshouse test. To be noted: sprayed after 8 days cultivation, 250 g/ha, evaluated after 13 days, five-point scale. How it is done: as §1
Experiment [3] has as its system Setaria faberi (SETFA). As to the kind of experiment: Post-emergence herbicidal glasshouse test. The settings on record: sprayed after 8 days cultivation, 250 g/ha, evaluated after 13 days, five-point scale. The method, then: as §1
Experiment [4] concerns Amaranthus retoflexus (AMARE). As to the kind of experiment: Pre-emergence herbicidal glasshouse test. The settings on record: sprayed after one day cultivation, 250 g/ha, evaluated after 13 days, five-point scale. How it is done: as §1
The test system of experiment [5] is Echinochloa crus-galli (ECHCG). As to the kind of experiment: Pre-emergence herbicidal glasshouse test. To be noted: sprayed after one day cultivation, 250 g/ha, evaluated after 13 days, five-point scale. How it is done: as §1
In experiment [6] the test system is Setaria faberi (SETFA). As to the kind of experiment: Pre-emergence herbicidal glasshouse test. To be noted: sprayed after one day cultivation, 250 g/ha, evaluated after 13 days, five-point scale. The method, then:
as §1

In the case of `Fc1cccc(Oc2nc(Br)cs2)c1-c1cc(C(F)F)no1` [Compound 1.007], the “percentage damage caused to the plant, AMARE” value in experiment [1] and in experiment [4] was 5 (5=81-100%) in each case. Moreover, the “percentage damage caused to the plant, ECHCG” value in experiment [2] is listed as 4 (4=61-80%); in experiment [5], 3 (3=41-60%). Further, the “percentage damage caused to the plant, SETFA” value in experiment [3] and in experiment [6] was 5 (5=81-100%) in each case.
With `Fc1cccc(Oc2nc(Cl)cs2)c1-c1cc(C(F)F)no1` [Compound 1.008], the “percentage damage caused to the plant, AMARE” value in experiment [1] was 4 (4=61-80%); in experiment [4] it was 3 (3=41-60%). Further, the “percentage damage caused to the plant, ECHCG” value in experiment [2] is listed as 2 (2=21-40%); in experiment [5] it was 1 (1=0-20%). In addition, the “percentage damage caused to the plant, SETFA” value is given as 1 (1=0-20%) in experiment [3] and 3 (3=41-60%) in experiment [6].
In the case of `Fc1cccc(Oc2ncc(C(F)F)s2)c1-c1cc(C(F)F)no1` [Compound 1.001, 3-(difluoromethyl)-5-[2-[5-(difluoromethyl)thiazol-2-yl]oxy-6-fluoro-phenyl]isoxazole], the “percentage damage caused to the plant, AMARE” value in experiment [1] and in experiment [4] was 5 (5=81-100%) each time. For the same molecule, the “percentage damage caused to the plant, ECHCG” value in experiment [2] and in experiment [5] was 5 (5=81-100%) throughout. Also, the “percentage damage caused to the plant, SETFA” value in experiment [3] and in experiment [6] was 5 (5=81-100%) in each case.
Take `Fc1cccc(Oc2nc(C(F)F)cs2)c1-c1cc(C(F)F)no1` [Compound 1.009]: the “percentage damage caused to the plant, AMARE” value in experiment [1] and in experiment [4] was 4 (4=61-80%) in each case. The entries for the “percentage damage caused to the plant, ECHCG” value in experiment [2] and in experiment [5] were 2 (2=21-40%) and 3 (3=41-60%), respectively. The entries for the “percentage damage caused to the plant, SETFA” value in experiment [3] and in experiment [6] were 2 (2=21-40%) and 5 (5=81-100%), respectively.
As to `FC(F)c1cc(-c2c(Br)cccc2Oc2ncc(Br)s2)on1` [Compound 1.024], the “percentage damage caused to the plant, AMARE” value in experiment [1] is recorded as 5 (5=81-100%); in experiment [4], 4 (4=61-80%). In addition, the “percentage damage caused to the plant, ECHCG” value in experiment [2] and in experiment [5] was 5 (5=81-100%) throughout. The “percentage damage caused to the plant, SETFA” value in experiment [3] is recorded as 5 (5=81-100%); in experiment [6], 4 (4=61-80%).
For the molecule `FC(F)c1cc(-c2c(Cl)cccc2Oc2nc(Cl)c(Cl)s2)on1` [Compound 1.032], the “percentage damage caused to the plant, AMARE” value in experiment [1] and in experiment [4] was 5 (5=81-100%) in each case. The “percentage damage caused to the plant, ECHCG” value is given as 2 (2=21-40%) in experiment [2] and 1 (1=0-20%) in experiment [5]. In addition, the results for the “percentage damage caused to the plant, SETFA” value in experiment [3] and in experiment [6] were 4 (4=61-80%) and 1 (1=0-20%), respectively.
On to `FC(F)c1cc(-c2c(Cl)cccc2Oc2ncc(Br)s2)on1` [Compound 1.025], for which the “percentage damage caused to the plant, AMARE” value in experiment [1] and in experiment [4] was 5 (5=81-100%) each time. Besides, the “percentage damage caused to the plant, ECHCG” value in experiment [2] and in experiment [5] was 5 (5=81-100%) in each case. Further, the “percentage damage caused to the plant, SETFA” value in experiment [3] and in experiment [6] was 5 (5=81-100%) throughout.
Turning to `FC(F)c1cc(-c2c(Cl)cccc2Oc2ncc(Cl)s2)on1` [Compound 1.022], the “percentage damage caused to the plant, AMARE” value in experiment [1] and in experiment [4] was 5 (5=81-100%) throughout. For the same molecule, the “percentage damage caused to the plant, ECHCG” value in experiment [2] and in experiment [5] was 5 (5=81-100%) throughout. Besides, the “percentage damage caused to the plant, SETFA” value in experiment [3] and in experiment [6] was 5 (5=81-100%) in each case.
Consider `FC(F)c1cc(-c2c(Br)cccc2Oc2nc(C(F)F)c(Cl)s2)on1` [Compound 1.030], for which the “percentage damage caused to the plant, AMARE” value in experiment [1] and in experiment [4] was 1 (1=0-20%) throughout. Also, the “percentage damage caused to the plant, ECHCG” value in experiment [2] and in experiment [5] was 1 (1=0-20%) throughout. Besides, the “percentage damage caused to the plant, SETFA” value in experiment [3] and in experiment [6] was 1 (1=0-20%) each time.
For `FC(F)c1cc(-c2c(Br)cccc2Oc2nc(C(F)(F)F)cs2)on1` [Compound 1.034], the “percentage damage caused to the plant, AMARE” value in experiment [1] and in experiment [4] was 4 (4=61-80%) in each case. In addition, the “percentage damage caused to the plant, ECHCG” value in experiment [2] and in experiment [5] was 3 (3=41-60%) throughout. Also, the “percentage damage caused to the plant, SETFA” value is reported as 4 (4=61-80%) in experiment [3] and 5 (5=81-100%) in experiment [6].
Take `Fc1cccc(Oc2nc(C(F)(F)F)cs2)c1-c1cc(C(F)F)no1` [Compound 1.033]: the results for the “percentage damage caused to the plant, AMARE” value in experiment [1] and in experiment [4] were 4 (4=61-80%) and 5 (5=81-100%), respectively. For the same molecule, the “percentage damage caused to the plant, ECHCG” value in experiment [2] and in experiment [5] was 4 (4=61-80%) throughout. Further, the “percentage damage caused to the plant, SETFA” value in experiment [3] is on record as 4 (4=61-80%); in experiment [6] it was 5 (5=81-100%).
For `Cc1cccc(-c2cc(C(F)F)no2)c1Oc1ncc(Cl)s1` [Compound 1.011], the “percentage damage caused to the plant, AMARE” value in experiment [1] is reported as 2 (2=21-40%); in experiment [4], 4 (4=61-80%). Besides, the results for the “percentage damage caused to the plant, ECHCG” value in experiment [2] and in experiment [5] were 3 (3=41-60%) and 4 (4=61-80%), respectively. The “percentage damage caused to the plant, SETFA” value is listed as 3 (3=41-60%) in experiment [3] and 1 (1=0-20%) in experiment [6].
In the case of `Fc1cccc(Oc2ncc(Br)s2)c1-c1cc(C(F)F)no1` [Compound 1.004, 5-[2-(5-bromothiazol-2-yl)oxy-6-fluoro-phenyl]-3-(difluoromethyl)isoxazole], the “percentage damage caused to the plant, AMARE” value in experiment [1] and in experiment [4] was 5 (5=81-100%) throughout. For the same molecule, the results for the “percentage damage caused to the plant, ECHCG” value in experiment [2] and in experiment [5] were 5 (5=81-100%) and 4 (4=61-80%), respectively. Besides, the “percentage damage caused to the plant, SETFA” value in experiment [3] and in experiment [6] was 5 (5=81-100%) throughout.
`Cc1cnc(Oc2cccc(F)c2-c2cc(C(F)F)no2)s1` [Compound 1.005, 3-(difluoromethyl)-5-[2-fluoro-6-(5-methylthiazol-2-yl)oxy-phenyl]isoxazole]: the “percentage damage caused to the plant, AMARE” value was 4 (4=61-80%) in experiment [1] and 5 (5=81-100%) in experiment [4]. In addition, the entries for the “percentage damage caused to the plant, ECHCG” value in experiment [2] and in experiment [5] were 4 (4=61-80%) and 3 (3=41-60%), respectively. Besides, the “percentage damage caused to the plant, SETFA” value in experiment [3] and in experiment [6] was 4 (4=61-80%) in each case.
`C=Cc1cnc(Oc2cccc(F)c2-c2cc(C(F)F)no2)s1` [Compound 1.002, 3-(difluoromethyl)-5-[2-fluoro-6-(5-vinylthiazol-2-yl)oxy-phenyl]isoxazole]: the “percentage damage caused to the plant, AMARE” value in experiment [1] is reported as 2 (2=21-40%); in experiment [4], 1 (1=0-20%). Also, the “percentage damage caused to the plant, ECHCG” value in experiment [2] and in experiment [5] was 4 (4=61-80%) throughout. The “percentage damage caused to the plant, SETFA” value was 4 (4=61-80%) in experiment [3] and 2 (2=21-40%) in experiment [6].
On to `FC(F)c1cc(-c2ccccc2Oc2ncc(Cl)s2)on1` [Compound 1.026], for which the “percentage damage caused to the plant, AMARE” value in experiment [1] and in experiment [4] was 4 (4=61-80%) each time. The “percentage damage caused to the plant, ECHCG” value in experiment [2] and in experiment [5] was 4 (4=61-80%) throughout. Moreover, the “percentage damage caused to the plant, SETFA” value in experiment [3] and in experiment [6] was 4 (4=61-80%) throughout.
As for `FC(F)c1cc(-c2ccccc2Oc2ncc(C(F)F)s2)on1` [Compound 1.021], the “percentage damage caused to the plant, AMARE” value in experiment [1] is 4 (4=61-80%); in experiment [4] it was 3 (3=41-60%). For the same molecule, the “percentage damage caused to the plant, ECHCG” value in experiment [2] is given as 1 (1=0-20%); in experiment [5], 4 (4=61-80%). For the same molecule, the “percentage damage caused to the plant, SETFA” value in experiment [3] is listed as 3 (3=41-60%); in experiment [6], 4 (4=61-80%).
Regarding `Fc1cccc(Sc2ncc(Cl)s2)c1-c1cc(C(F)F)no1` [Compound 1.031, 5-[2-(5-chlorothiazol-2-yl)sulfanyl-6-fluoro-phenyl]-3-(difluoromethyl)isoxazole], the “percentage damage caused to the plant, AMARE” value was 4 (4=61-80%) in experiment [1] and 3 (3=41-60%) in experiment [4]. In addition, the “percentage damage caused to the plant, ECHCG” value in experiment [2] and in experiment [5] was 2 (2=21-40%) each time. Also, the entries for the “percentage damage caused to the plant, SETFA” value in experiment [3] and in experiment [6] were 3 (3=41-60%) and 2 (2=21-40%), respectively.

The record behind these values is US12662476B2, “Herbicidal thiazole compounds” (SYNGENTA CROP PROTECTION AG, priority 2019, dated 2026).
